Tested on: BCR-Ba/F3 control cell line
Experiment: Assay 5 Ba/F3 cell survival assay, BCR-none control line
Format: cell-based
Conditions: Mus musculus, BaF3
Protocol: Assay 5—Ba/F3 Cell Survival Assays.
The inhibitory potencies of compounds were assessed in a Ba/F3 cell survival assay, using the Ba/F3 Pro B-cell line, recombinantly expressing a BCR-human AXL kinase domain fusion protein (pACD320/AXL, Advanced Cellular Dynamics Inc), TEL-human MERTK fusion domain (pACD1000/MERTK, Advanced Cellular Dynamics Inc), TEL-human Tyro3 fusion domain (pACD1000/TYRO3, Advanced Cellular Dynamics Inc), or control TEL-none (ACD320, Advanced Cellular Dynamics Inc) BRC-none constructs (ACD1000, Advanced Cellular Dynamics Inc). 10 ng/mL recombinant murine IL3 (R&D, 403-ML-010) was included in the media when propagating negative control TEL-none or BCR-none lines only. Cells were maintained in RMPI 1640 (Corning 15-040-CV) culture media containing 10% heat inactivated semi-synthetic FBS (RMBIO FGR-BBT), 2 mM L-Glutamine (Sigma, G7513), 100 IU/mL Penicillin-[…] Streptomycin (Sigma, P4333), and 500 ng/mL Puromycin (Sigma, P8833). Experiments were performed in 50 μl growth media, including the test compounds of interest, and dispensing 5000 cells/well in logarithmic-phase growth into a 384 well white Optiplate (Perkin Elmer 6007299). […] The final assay DMSO concentration was 0.25%. […]
The plate was then equilibrated for 5 min at room temperature and luminescence read on a BMG Pherastar FSX using the LUM plus optic module. […]

**Q.** `O=C(Nc1ccc(Oc2ccnc3cnc(N4CCN(C5COC5)CC4)cc23)cn1)c1ccnn(-c2ccc(F)cc2)c1=O` [Example 20, 2-(4-fluorophenyl)-N-[5-[[6-[4-(oxetan-3-yl)piperazin-1-yl]-1,7-naphthyridin-4-yl]oxy]-2-pyridyl]-3-oxo-pyridazine-4-carboxamide] was tested. Which IC50 did it give?
**A.** 830 nM

— US20230203029A1 (priority 2020, published 2023)
